The values below are quoted from earlier work in publication PMC3726599, “A Metabolically-Stabilized Phosphonate Analog of Lysophosphatidic Acid Attenuates Collagen-Induced Arthritis” (PLoS ONE, 2013).

The test system of the series is orthotopic breast cancer xenograft model. On the set-up: method as in PMID 19509223. The conditions noted are these: in vivo; cited from earlier work.

For the molecule `CCCCCCCCCCCCCCCC(=O)OC[C@@H](O)CC(Br)P(=O)(O)O` (stereo partly drawn) [BrP-LPA, 1-bromo-3(S)-hydroxy-4-(palmitoyloxy)butyl-phosphonate], the tumor regression entry is recorded as “cause tumor regression in vivo”.
